Our source for the MIC and Ratio values is ChEMBL document CHEMBL5360532, “Current scenario of quinolone hybrids with potential antibacterial activity against ESKAPE pathogens” (Eur J Med Chem, 2023).

Holding throughout (assay type): functional
Test [1] has as its system Mycobacterium tuberculosis. Description: Antimycobacterial activity against extensive drug resistant Mycobacterium tuberculosis assessed as bacterial growth inhibition by agar cup diffusion assay.
The subject of test [2] is Mycobacterium tuberculosis. The test is described as follows: Antimycobacterial activity against multidrug resistant Mycobacterium tuberculosis assessed as bacterial growth inhibition by agar cup diffusion assay.
The test system of test [3] is Mycobacterium tuberculosis. Description: Potency index, ratio of ciprofloxacin MIC to test compound MIC for antimycobacterial activity against extensive drug resistant Mycobacterium tuberculosis assessed as bacterial growth inhibition by LJ slant assay.
In test [4] the test system is Mycobacterium tuberculosis. Description: Potency index, ratio of ciprofloxacin MIC to test compound MIC for antimycobacterial activity against multidrug resistant Mycobacterium tuberculosis assessed as bacterial growth inhibition by LJ slant assay.

One may read the MIC as the lowest concentration found to suppress growth.

≈ marks a conversion by molar mass, not a printed value.

Consider `C=CCn1c(SCC(=O)N2CCN(c3cc4c(cc3F)c(=O)c(C(=O)O)cn4C3CC3)CC2)nnc1-c1ccccc1`, for which the MIC in test [1] and in test [2] was 4 µg/mL (≈ 6.8 µM) throughout.
Take `O=c1c(-c2nnc(S)o2)cn(C2CC2)c2cc(N3CCNCC3)c(F)cc12`: the Ratio entry in test [3] and in test [4] was “>=32” in each case.
For `O=C(CN1CCN(c2cc3c(cc2F)c(=O)c(C(=O)O)cn3C2CC2)CC1)Nc1nnc(-c2ccccc2)s1`, the MIC in test [1] and in test [2] was 8 µg/mL (≈ 14.6 µM) in each case.
